Data reported in US20170333560A1, “Pharmaceutical Composition That Includes A Neutral Carrier Treated With Energy And Related Methods Of Treatment” (priority 2016, published 2017).

Experiments:
[1] = test system: obsessive-compulsive disorder with prevailing anxiety disorders; test: Study versus Diazepam in obsessive-compulsive disorder (HAM-A, STAI, SAN); assay type: in vivo, human
Procedure: A study was conducted to examine the efficacy of the claimed drug, formulated as a water solution (liquid dosage form) of the activated (potentized) energy-treated carrier, obtained by multiple consecutive dilution of the initial matrix solution in an aqueous-alcoholic diluent, combined with external mechanical impact—shaking of each resulting dilution, to a degree of 100^200, equivalent to a centesimal (C200) homeopathic dilution (wherein the energy treatment of the initial neutral carrier has been accomplished by exposing it to an electric current caused by a difference of potentials being applied to electrodes placed in the initial liquid carrier and which is proportional in amplitude to an amplified combined, summed signal, formed by summing the resultant signals—biopotential differences of individual referential derivations recorded in five healthy donors using the internationally recognized 10-20 system, which involves 19 active recording electrodes placed in regular positions all over the scalp and one reference electrode located on the ear-lobe)—further referred to as AP drug—in treating obsessive-compulsive disorder.
The tolerability and anxiolytic efficacy of AP drug was examined versus Diazepam in patients with obsessive-compulsive disorder with prevailing anxiety disorders. Inclusion criteria: • 1. Subjects aged from 18 to 65 years. • 2. Subjects meeting the obsessive-compulsive disorder criteria (ICD-10 code F42). • 3. Subjects receiving no treatment with psychoactive agents at least for a week before and at the time of the trial.
The study included 20 patients (8 men and 12 women) aged between 19 and 62 years old. The mean patient age and mean duration of disease were 38.0±1.6 years and 2.1±0.5 years, respectively.
The duration of treatment was […]. The patients randomized to AP drug (45) received it at a dose of 20 drops 4 times daily; the rest 35 patients were assigned to receive Diazepam at 15 mg daily.
The patients were assessed for OCD symptom severity at baseline (day 0) and at days 7, 14, and 28.

[2] = test system: depression in patients with post-traumatic stress disorders; test: Comparative trial versus Heptral in stress-related depression (HAM-D, HADS, CGI); assay type: in vivo, human; set-up: CGI Efficacy Index / CGI Severity scale total score / CGI Improvement scale total score: scale not given here
Procedure: A randomized, […] study was conducted to examine the efficacy and safety of the claimed drug, formulated as a solid dosage form containing lactose granules impregnated with water-alcohol solution of the liquid activated (potentized) energy-treated carrier, obtained by multiple consecutive dilution of the initial matrix solution in an aqueous-alcoholic diluent, combined with external mechanical impact—shaking of each resulting dilution, to a degree of 100^200, equivalent to a centesimal (C200) homeopathic dilution (wherein the energy treatment of the initial liquid carrier has been accomplished by exposing it to an electric current caused by a difference of potentials being applied to electrodes placed in the initial liquid carrier and which is proportional in amplitude to an amplified combined, summed signal, formed by summing the resultant signals—biopotential differences of individual referential derivations recorded in five healthy donors using the internationally recognized 10-20 system, which involves 19 active recording electrodes placed in regular positions all over the scalp and one reference electrode located on the ear-lobe)—further referred to as AP drug, where it was used for treating depression in patients with post-traumatic stress disorders.
AP drug was administered to manage the depressive symptoms—in parallel to Heptral (adametionine), used as a comparator in efficacy assessment. AP drug was administered for 4 weeks at a dose of 2 tablets 4 times daily. Heptral was used at 400 mg 3 times (1200 mg) daily.
An open comparative clinical trial was performed which involved 30 patients (16 men and 14 women) assigned to two parallel groups: 15 patients in the group of AP drug and 15 in the heptral group. The mean age of participants assigned to AP drug was 38.0±4.39 years;
The period of study participation was 8 weeks (the total treatment duration of 4 weeks and 4 weeks of follow-up).
Neither of the patient groups was allowed to take psychoactive medications during the study. The drugs not prohibited for use during the treatment were medications for the underlying traumatic illness and co-existing somatic disorders. The study enrolled inpatients aged from 18 to 65 years old, who had been receiving medical attention for bodily injuries resulting from car accidents, which had taken place under circumstances threatening the life or welfare of the patient or/and their friends or family members suffering from anxiety mental disorders, such as (defined by the ICD-10) reaction to severe stress, and adjustment disorders (F43); adjustment disorders (F43.2); adjustment disorder with mixed anxiety and depressed mood (F43.23).
1. Reduced severity of depressive symptoms and signs as measured by the HADS. 2. Reduced severity of depressive symptoms and signs as measured by the HAM-D 3. Efficacy Index assessment on the Clinical Global Impression (CGI) scale.
The patients' mental health was examined at baseline—at admission to the clinic, following 1, 2 and 4 weeks of treatment, and 4 weeks after treatment discontinuation (follow-up).
The effect of study treatment was evaluated according to changes in the total HAM-D score and scoring outcomes on the HADS anxiety and depression subscales. In addition, the Clinical Global Impression scale was administered to primarily estimate the Efficacy Index for the treatment conducted.

CN1C(=O)CN=C(c2ccccc2)c2cc(Cl)ccc21 [Diazepam]
HAM-A scores ([1]; Day 7): 19.02 | HAM-A scores ([1]; Day 14): 12.93 | Average reduction of HAM-A scores ([1]; at 28 days): 70.2% | Percentage of patients exhibiting treatment response (50% reduction of mean HAM-A score and over) ([1]; at 28 days): 100% | Mean SAN score ([1]; at treatment completion): 3.6 | Occurrence of adverse reactions ([1]; throughout the study): 82.9% | Reduction in trait anxiety scores (STAI) ([1]; treatment completion): 22.3% | Reduction of situational anxiety (STAI) scores ([1]; treatment completion): 29.6%

C[S+](CC[C@H](N)C(=O)[O-])C[C@H]1O[C@@H](n2cnc3c(N)ncnc32)[C@H](O)[C@@H]1O (stereo partly shown) [Heptral, adametionine]
CGI Severity scale total score ([2]; Visit 1 (baseline)): 3.8 ± 0.17 | Total HADS depression score ([2]; Visit 1 (baseline), n = 15): 17.5 | Total HAM-D score ([2]; Visit 1 (baseline), n = 15): 26.2 | CGI Efficacy Index ([2]; Visit 2 (week 1)): 1.1 ± 0.08 | CGI Improvement scale total score ([2]; Visit 2 (week 1)): 2.9 ± 0.07 | CGI Severity scale total score ([2]; Visit 2 (week 1)): 2.9 ± 0.12 | Total HADS depression score ([2]; Visit 2 (week 1)): 13.2 | Total HAM-D score ([2]; Visit 2 (week 1)): 23.1 | CGI Efficacy Index ([2]; Visit 3 (week 2)): 1.8 ± 0.19 | CGI Improvement scale total score ([2]; Visit 3 (week 2)): 2.1 ± 0.15 | CGI Severity scale total score ([2]; Visit 3 (week 2)): 1.9 ± 0.12 | Total HADS depression score ([2]; Visit 3 (week 2)): 9.6 | Total HAM-D score ([2]; Visit 3 (week 2)): 15.6 | CGI Efficacy Index ([2]; Visit 4 (week 4)): 2.3 ± 0.18 | CGI Improvement scale total score ([2]; Visit 4 (week 4)): 1.2 ± 0.11 | CGI Severity scale total score ([2]; Visit 4 (week 4)): 1.1 ± 0.07 | Total HADS depression score ([2]; Visit 4 (week 4)): 6.5 | Total HAM-D score ([2]; Visit 4 (week 4)): 14.1 | CGI Efficacy Index ([2]; Visit 5 (follow-up)): 2.3 ± 0.18 | CGI Improvement scale total score ([2]; Visit 5 (follow-up)): 1.1 ± 0.07 | CGI Severity scale total score ([2]; Visit 5 (follow-up)): 1.0 ± 0.00 | Total HADS depression score ([2]; Visit 5 (follow-up)): 3.5 | Total HAM-D score ([2]; Visit 5 (follow-up)): 12.1 | Adverse event anxiety worsening ([2]; group of 15): 2 patients | Adverse event dizziness ([2]; group of 15): 5 patients | Adverse event headache ([2]; group of 15): 3 patients
